Laboratory results as given in patent publication US7939558B2, “Compounds having activity in increasing ion transport by mutant-CFTR and uses thereof” (The Regents of the University of California, priority 2004, dated 2011).

Legend:
ΔF508-CFTR [1] = target: T1, ΔF508-CFTR (Homo sapiens, UniProt P13569, DEL508-508); settings: in combination with cAMP agonists; cited from earlier work
ΔF508-CFTR [2] = target: T1, ΔF508-CFTR; assay: Short-circuit current in primary nasal epithelial cells from ΔF508 homozygous subject; format: cell-based; design: expressed in transfected cells; settings: 27° C. 20-24 hours, amiloride, forskolin 20 μM
Method: For short-circuit measurements cells were cultured on Snapwell permeable supports (Corning-Costar) at 500,000 cells/insert. […] Patch clamp experiments were done on ΔF508-CFTR-expressing FRT cells plated in 35-mm Petri dishes.
Human nasal epithelial cells from ΔF508 homozygote subjects were cultured as polarized monolayers on permeable supports for transepithelial short-circuit current measurement.

G551D-CFTR = G551D-CFTR (Homo sapiens, UniProt P13569, G551D); assay: Short-circuit Cl− current in FRT cells expressing G551D-CFTR; settings: after maximal forskolin
Sequence of G551D-CFTR (P13569 whole entry G551D): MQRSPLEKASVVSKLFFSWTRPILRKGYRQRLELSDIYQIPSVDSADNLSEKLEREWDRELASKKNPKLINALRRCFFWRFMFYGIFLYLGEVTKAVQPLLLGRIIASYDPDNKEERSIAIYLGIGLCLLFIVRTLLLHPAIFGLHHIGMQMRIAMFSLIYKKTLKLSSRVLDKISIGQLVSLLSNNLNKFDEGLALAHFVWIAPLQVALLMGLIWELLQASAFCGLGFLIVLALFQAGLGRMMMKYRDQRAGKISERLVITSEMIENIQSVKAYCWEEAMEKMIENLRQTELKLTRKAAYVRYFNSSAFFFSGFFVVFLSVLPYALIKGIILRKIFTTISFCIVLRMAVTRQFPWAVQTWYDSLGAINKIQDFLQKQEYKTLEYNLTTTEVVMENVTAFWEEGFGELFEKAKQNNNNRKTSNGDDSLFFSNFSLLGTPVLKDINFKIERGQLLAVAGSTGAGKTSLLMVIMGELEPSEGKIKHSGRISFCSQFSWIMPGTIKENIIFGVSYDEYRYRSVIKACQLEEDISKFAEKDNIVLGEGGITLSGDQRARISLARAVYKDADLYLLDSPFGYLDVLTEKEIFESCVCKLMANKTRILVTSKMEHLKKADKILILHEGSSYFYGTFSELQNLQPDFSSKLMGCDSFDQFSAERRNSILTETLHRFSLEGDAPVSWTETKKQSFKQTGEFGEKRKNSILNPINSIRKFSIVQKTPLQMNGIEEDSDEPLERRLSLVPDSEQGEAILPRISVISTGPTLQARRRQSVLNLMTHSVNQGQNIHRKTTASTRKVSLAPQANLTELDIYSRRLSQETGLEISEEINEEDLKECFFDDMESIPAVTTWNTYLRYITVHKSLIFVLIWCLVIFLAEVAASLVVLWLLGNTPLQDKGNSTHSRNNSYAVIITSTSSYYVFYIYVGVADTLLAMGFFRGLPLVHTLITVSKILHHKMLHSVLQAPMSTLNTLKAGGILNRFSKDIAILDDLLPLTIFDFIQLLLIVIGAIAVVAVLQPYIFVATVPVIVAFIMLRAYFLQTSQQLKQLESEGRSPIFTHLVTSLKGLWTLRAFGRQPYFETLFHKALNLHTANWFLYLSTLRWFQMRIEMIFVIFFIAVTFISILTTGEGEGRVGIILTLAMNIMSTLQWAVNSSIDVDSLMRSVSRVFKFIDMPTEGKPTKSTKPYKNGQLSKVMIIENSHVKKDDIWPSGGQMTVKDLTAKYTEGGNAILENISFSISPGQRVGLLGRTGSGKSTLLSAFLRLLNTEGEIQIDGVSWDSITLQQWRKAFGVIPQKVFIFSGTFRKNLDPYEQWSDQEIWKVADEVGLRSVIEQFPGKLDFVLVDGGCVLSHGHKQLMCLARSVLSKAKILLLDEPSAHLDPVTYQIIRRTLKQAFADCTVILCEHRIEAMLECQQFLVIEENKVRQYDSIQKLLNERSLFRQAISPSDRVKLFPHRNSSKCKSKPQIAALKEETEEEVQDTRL

G1349D-CFTR = target: T2, G1349D-CFTR (Homo sapiens, UniProt P13569, G1349D); assay: Short-circuit Cl− current in FRT cells expressing G1349D-CFTR; format: cell-based; settings: after maximal forskolin
T2 construct: expressed in transfected cells; host or cells: FRT cells
T2 sequence (P13569 whole entry G1349D): as the sequence (P13569 whole entry G551D) above, with D551G, G1349D counted along it
Method: Experiments were done after basolateral membrane permeabilization and in the presence of a transepithelial Cl^− gradient, so that short-circuit current represents apical membrane Cl^− current. […] Cells were plated on a permeable support to generate a polarized epithelium, cultured for 5-7 days, and then incubated at 27° C. for 24 hours. Transepithelial chloride current was measured in a modified Ussing chamber in the presence of a chloride gradient.
In contrast to the ΔF508 mutation, other cystic fibrosis mutations, which number >1000, have a relatively very low frequency. The fraction of CF mutations that cause a pure gating defect (class III mutants) is unknown but is likely to be substantial.

T1 sequence (P13569 with tags, fused parts or gaps DEL508-508): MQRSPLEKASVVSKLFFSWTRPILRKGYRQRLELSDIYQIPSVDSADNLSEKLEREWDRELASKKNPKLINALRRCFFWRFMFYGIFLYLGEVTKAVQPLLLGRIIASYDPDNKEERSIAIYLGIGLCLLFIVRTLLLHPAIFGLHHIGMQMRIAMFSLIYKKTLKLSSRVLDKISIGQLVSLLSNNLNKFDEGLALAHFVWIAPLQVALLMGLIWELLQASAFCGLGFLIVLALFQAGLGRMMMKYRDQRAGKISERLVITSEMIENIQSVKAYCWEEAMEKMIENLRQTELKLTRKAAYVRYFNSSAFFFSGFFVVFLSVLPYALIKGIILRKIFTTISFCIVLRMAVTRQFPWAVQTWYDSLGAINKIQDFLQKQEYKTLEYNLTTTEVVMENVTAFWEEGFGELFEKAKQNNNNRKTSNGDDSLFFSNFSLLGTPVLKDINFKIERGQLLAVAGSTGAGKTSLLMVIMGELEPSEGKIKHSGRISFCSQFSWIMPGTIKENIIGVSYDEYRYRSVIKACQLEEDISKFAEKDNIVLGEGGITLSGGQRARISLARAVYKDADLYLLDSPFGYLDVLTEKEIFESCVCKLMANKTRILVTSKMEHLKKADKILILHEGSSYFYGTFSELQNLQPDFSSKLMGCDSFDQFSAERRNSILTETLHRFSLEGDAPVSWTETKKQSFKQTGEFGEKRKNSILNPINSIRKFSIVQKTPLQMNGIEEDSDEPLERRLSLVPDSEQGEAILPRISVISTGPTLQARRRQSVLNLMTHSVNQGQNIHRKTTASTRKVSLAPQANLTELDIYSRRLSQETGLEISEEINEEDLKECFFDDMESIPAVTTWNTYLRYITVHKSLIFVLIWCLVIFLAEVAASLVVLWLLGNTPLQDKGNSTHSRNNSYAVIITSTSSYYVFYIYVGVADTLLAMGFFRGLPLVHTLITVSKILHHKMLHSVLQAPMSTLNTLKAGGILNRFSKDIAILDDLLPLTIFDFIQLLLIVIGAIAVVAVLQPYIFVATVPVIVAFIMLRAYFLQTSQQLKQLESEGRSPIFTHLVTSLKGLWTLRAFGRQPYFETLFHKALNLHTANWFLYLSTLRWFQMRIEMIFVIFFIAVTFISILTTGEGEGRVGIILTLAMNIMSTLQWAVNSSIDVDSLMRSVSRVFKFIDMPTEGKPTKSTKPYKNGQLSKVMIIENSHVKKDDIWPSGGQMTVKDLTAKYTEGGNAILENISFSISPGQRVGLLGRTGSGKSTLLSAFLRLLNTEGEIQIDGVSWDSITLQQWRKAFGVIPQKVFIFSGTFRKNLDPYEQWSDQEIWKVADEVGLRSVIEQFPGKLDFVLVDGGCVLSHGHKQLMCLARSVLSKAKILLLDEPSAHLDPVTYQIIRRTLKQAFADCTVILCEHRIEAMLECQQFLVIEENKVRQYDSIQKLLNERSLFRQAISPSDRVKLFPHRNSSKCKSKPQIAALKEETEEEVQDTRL

For `O=c1c(-c2ccc(O)cc2)coc2cc(O)cc(O)c12` [genistein, reference compound], the “concentration that increases ΔF508-CFTR channel activity” value (ΔF508-CFTR [1]) is given as over 50 µM, the “activation of ΔF508-CFTR current” value (ΔF508-CFTR [2]) is given as “comparably effective but at much higher concentrations” and the “Cl− current in G551D-CFTR expressing cells” value (G551D-CFTR) is given as “increased Cl^− current substantially, albeit at high micromolar concentrations”. For the same molecule, the “Cl− current in G1349D-CFTR expressing cells” value (G1349D-CFTR) was “increased Cl^− current substantially, albeit at high micromolar concentrations”.
